Data as given in patent US8791266B2, “Thyroid hormone β receptor agonist” (Mitsubishi Tanabe Pharma Corporation, priority 2009, dated 2014).

How the values were obtained:
[1] = target: T1, Human Thyroid Hormone Receptor β1 (TRβ1) (Homo sapiens, UniProt P10828); experiment: Transcription activation test of human thyroid hormone receptor β1 (luciferase reporter in 293T cells); type: cell-based; conditions: EC50 of transcription activation on TRβ1, 293T cells, luciferase activity after 24 hr; read-out: TRβ
T1 construct: expressed in transfected cells; host or cells: 293T cells
T1 sequence (P10828 1-461): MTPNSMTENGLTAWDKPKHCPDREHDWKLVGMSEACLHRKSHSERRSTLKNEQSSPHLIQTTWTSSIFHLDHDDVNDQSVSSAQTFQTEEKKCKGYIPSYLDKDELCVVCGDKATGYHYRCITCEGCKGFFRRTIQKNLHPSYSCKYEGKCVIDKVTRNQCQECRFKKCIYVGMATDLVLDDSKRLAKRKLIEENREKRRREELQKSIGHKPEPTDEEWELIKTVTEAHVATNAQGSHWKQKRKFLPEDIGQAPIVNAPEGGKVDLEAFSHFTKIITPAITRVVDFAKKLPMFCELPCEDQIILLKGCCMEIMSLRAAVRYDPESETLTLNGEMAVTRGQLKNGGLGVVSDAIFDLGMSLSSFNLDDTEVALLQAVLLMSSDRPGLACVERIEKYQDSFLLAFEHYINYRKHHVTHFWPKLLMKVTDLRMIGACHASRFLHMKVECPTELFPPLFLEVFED
Text: (§1) Transcription Activation Test of Human Thyroid Hormone Receptors α1 (TRα1) and β1 (TRβ1)
(§2) pcDNA3.1 vector (manufactured by Invitrogen) that expresses TRα1 or β1 cloned from human liver-derived cells, and firefly luciferase expression vector pDR4-LuC (manufactured by Stratagene) having a thyroid hormone response sequence to be a reporter were transfected into 293T cells cultured in Dulbecco's modified Eagle medium (DMEM) containing 10% of activated carbon/dextran-treated fetal bovine serum (FBS) by using Lipofectamine2000 (manufactured by Invitrogen). After 16 hr, the cells were plated again in a 96 well plate, and the medium was exchanged with DMEM containing 0.1% activated carbon/dextran-treated FBS. After 3 more hr, a compound diluted with dimethyl sulfoxide solution was added, and the luciferase activity after 24 hr was measured.
(§3) As a positive control, 3,3′,5-triiodo-L-thyronine (T3), which is a biological ligand, was used. The transcription activation action of the compound on TRα1 and TRβ1 was shown by each EC50 value and the maximum luciferase activity value relative to the maximum luciferase activity value of T3 as 100.

[2] = target: T2, Human Thyroid Hormone Receptor α1 (TRα1) (Homo sapiens, UniProt P10827); experiment: Transcription activation test of human thyroid hormone receptor α1 (luciferase reporter in 293T cells); type: cell-based; conditions: ratio TRα/TRβ of the transcription activation EC50 values
T2 construct: expressed in transfected cells; host or cells: 293T cells
T2 sequence (P10827 1-410 isoform P10827-2): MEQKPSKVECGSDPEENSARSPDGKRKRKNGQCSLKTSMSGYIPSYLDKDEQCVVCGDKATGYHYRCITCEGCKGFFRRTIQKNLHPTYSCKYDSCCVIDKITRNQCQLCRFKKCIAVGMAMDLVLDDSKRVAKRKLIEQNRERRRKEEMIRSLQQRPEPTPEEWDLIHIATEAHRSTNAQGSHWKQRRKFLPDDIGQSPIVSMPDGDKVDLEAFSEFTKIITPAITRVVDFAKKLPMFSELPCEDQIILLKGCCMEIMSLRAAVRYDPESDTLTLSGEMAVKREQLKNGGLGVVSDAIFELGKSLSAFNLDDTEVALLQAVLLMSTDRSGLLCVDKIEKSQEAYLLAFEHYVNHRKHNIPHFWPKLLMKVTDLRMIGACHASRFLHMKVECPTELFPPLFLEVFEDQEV
Text: as §1, §2, §3

| Structure (SMILES) | EC50 [1] [nM] | selectivity (TRα/TRβ) [2] |
| --- | --- | --- |
| Cc1cc(OCC(=O)O)c(C)c(C)c1Cc1ccc(O)c(C2CCCCC2)n1 [Example 7, {4-[(6-cyclohexyl-5-hydroxypyridin-2-yl)methyl]-2,3,5-trimethylphenoxy}acetic acid] | 1 | A (5<(TRα/TRβ)) |
| Cc1cc(OCC(=O)O)c(C)c(C)c1Cc1ccc(O)c(C2CCCCO2)n1 (stereo not drawn) [Example 8, (4-{[5-hydroxy-6-(tetrahydro-2H-pyran-2-yl)pyridin-2-yl]methyl}-2,3,5-trimethylphenoxy)acetic acid] | 50 | A (5<(TRα/TRβ)) |
| Cc1cc(C(=O)O)c(C)c(C)c1Cc1ccc(O)c(C2CCCCC2)n1 [Example 42, 4-[(6-cyclohexyl-5-hydroxypyridin-2-yl)methyl]-2,3,5-trimethylbenzoic acid] | 300 | B (2<(TRα/TRβ)<5) |
| Cc1cc(NC(=O)CC(=O)O)c(F)c(C)c1Cc1ccc(O)c(C2CCCCCC2)n1 [Example 131, 3-({4-[(6-cycloheptyl-5-hydroxypyridin-2-yl)methyl]-2-fluoro-3,5-dimethylphenyl}amino)-3-oxopropanoic acid] | 4 | A (5<(TRα/TRβ)) |
| Cc1cc(OCc2noc(=O)[nH]2)c(F)c(C)c1Cc1ccc(O)c(-c2ccc(F)c(F)c2F)n1 [Example 191, 3-{2-fluoro-4-[5-hydroxy-6-(2,3,4-trifluoro-phenyl)-pyridin-2-ylmethyl]-3,5-dimethyl-phenoxymethyl}-1,2,4-oxadiazol-5(4H)-one] | 6 | A (5<(TRα/TRβ)) |
| Cc1cc(OC(C)C(=O)O)c(C)c(C)c1Cc1ccc(O)c(C2CCCCC2)n1 (stereo not drawn) [Example 15, 2-{4-[(6-cyclohexyl-5-hydroxypyridin-2-yl)methyl]-2,3,5-trimethylphenoxy}propanoic acid] | 9 | B (2<(TRα/TRβ)<5) |
| Cc1cc(OCC(=O)O)c(C)c(C)c1Cc1ccc(O)c(C2CCCC2)n1 [Example 5, {4-[(6-cyclopentyl-5-hydroxypyridin-2-yl)methyl]-2,3,5-trimethylphenoxy}acetic acid] | 0.5 | A (5<(TRα/TRβ)) |
| Cc1cc(NCC(=O)O)c(C)c(C)c1Cc1ccc(O)c(C2CCCCC2)n1 [Example 62, N-{4-[(6-cyclohexyl-5-hydroxypyridin-2-yl)methyl]-2,3,5-trimethylphenyl}glycine] | 4 | B (2<(TRα/TRβ)<5) |
| Cc1cc(OCC(=O)O)c(C)c(C)c1Cc1ccc(O)c(C2CCCCCC2)n1 [Example 92, {4-[(6-cycloheptyl-5-hydroxypyridin-2-yl)methyl]-2,3,5-trimethylphenoxy}acetic acid] | 1 | A (5<(TRα/TRβ)) |

Results, then the compound that gave them:

| EC50 [1] [nM] | selectivity (TRα/TRβ) [2] | Structure (SMILES) |
| --- | --- | --- |
| 0.2 | C (2>(TRα/TRβ)) | Cc1cc(OCc2noc(=O)[nH]2)cc(C)c1Cc1ccc(O)c(C2CCCCC2)n1 [Example 28, 3-({4-[(6-cyclohexyl-5-hydroxypyridin-2-yl)methyl]-3,5-dimethylphenoxy}methyl)-1,2,4-oxadiazol-5(4H)-one] |
| 2 | A (5<(TRα/TRβ)) | Cc1cc(OCc2noc(=O)[nH]2)cc(C)c1Cc1ccc(O)c(-c2ccc3c(c2)CCCC3)n1 [Example 30, 3-[(4-{[5-hydroxy-6-(5,6,7,8-tetrahydronaphthalen-2-yl)pyridin-2-yl]methyl}-3,5-dimethylphenoxy)methyl]-1,2,4-oxadiazol-5(4H)-one] |
| 2 | B (2<(TRα/TRβ)<5) | Cc1cc(OCC(=O)O)cc(C)c1Cc1ccc(O)c(C2CCCCC2)n1 [Example 2, {4-[(6-cyclohexyl-5-hydroxypyridin-2-yl)methyl]-3,5-dimethylphenoxy}acetic acid] |
| 0.3 | A (5<(TRα/TRβ)) | Cc1cc(OCC(=O)O)c(Br)c(C)c1Cc1ccc(O)c(C2CCCCC2)n1 [Example 13, {2-bromo-4-[(6-cyclohexyl-5-hydroxypyridin-2-yl)methyl]-3,5-dimethylphenoxy}acetic acid] |
| 10 | A (5<(TRα/TRβ)) | Cc1cc(NC(=O)CC(=O)O)cc(C)c1Cc1ccc(O)c(C2CCCCC2)n1 [Example 23, 3-({4-[(6-cyclohexyl-5-hydroxypyridin-2-yl)methyl]-3,5-dimethylphenyl}amino)-3-oxopropanoic acid] |
| 8 | B (2<(TRα/TRβ)<5) | Cc1cc(OCc2noc(=O)[nH]2)c(C)c(C)c1Cc1ccc(O)c(C2CCCO2)n1 (stereo not drawn) [Example 33, 3-[(4-{[5-hydroxy-6-(tetrahydrofuran-2-yl)pyridin-2-yl]methyl}-2,3,5-trimethylphenoxy)methyl]-1,2,4-oxadiazol-5(4H)-one] |
